Tests used:
[1] = biological target: T1, casein kinase 1 delta (human CK1 delta PV3665) (Homo sapiens, UniProt P48730); test: FRET fluorescence test (Z'Lyte kinase assay kit), phosphorylation of peptide substrate SER/THR 11; type: biochemical; conditions: peptide substrate 2 μM, ATP at 4 times the KM
T1 construct: purchased Invitrogen Corporation PV3665
From the text: The capacity of the compounds of the invention to inhibit the phosphorylation of casein by casein kinase 1 epsilon and casein kinase 1 delta can be evaluated using a FRET (Fluorescence Resonance Energy Transfer) fluorescence test by means of the “Z′Lyte™ kinase assay kit” (reference PV3670; Invitrogen Corporation™) according to the supplier's instructions.
The casein kinases 1 used are obtained from Invitrogen Corporation (human CK1 epsilon PV3500 and human CK1 delta PV3665).
A peptide substrate, labelled at both ends with a fluorophore donor group (coumarin) and a fluorophore acceptor group (fluorescein) constituting a FRET system is phosphorylated in the presence of ATP by casein kinase 1 epsilon or delta in the presence of increasing concentrations of compounds of the invention.
The mixture is treated with a site-specific protease that specifically cleaves the peptide substrate so as to form two fluorescent fragments having a large fluorescence emission ratio.
The fluorescence observed is thus related to the capacity of the products of the invention to inhibit the phosphorylation of the peptide substrate by casein kinase 1 epsilon or casein kinase 1 delta. […]
The emitted fluorescence is measured at wavelengths of 445 and 520 nm (excitation at 400 nm).

[2] = biological target: T2, casein kinase 1 epsilon (CK1 epsilon) (Homo sapiens, UniProt P49674); test: Filter-plate assay of ATP-33P: inhibition of phosphorylation of casein by CK1 epsilon; type: biochemical; conditions: casein substrate, 10 μM ATP, 2 hours at ambient temperature
T2 construct: Invitrogen Corporation (alternative)
Method: The capacity of the compounds of the invention to inhibit the phosphorylation of casein by casein kinase 1 epsilon and delta can be evaluated according to the procedure described in document US 2005/0131012.
Filter-Plate Assay of ATP-^33P for the Screening of CK1 Epsilon Inhibitors:
The effect of the compounds on inhibition of the phosphorylation of casein by the enzyme casein kinase 1 epsilon (CK1 epsilon) is measured using a casein assay with filtration of ATP-^33P in vitro.
Casein kinase 1 epsilon (0.58 mg/ml) is obtained via fermentation and purification processes carried out according to methods well known to those skilled in the art, or may also be obtained from Invitrogen Corporation™ (human CK1 epsilon).
The compounds are tested at five different concentrations so as to generate IC50 values, i.e. the concentration at which a compound is capable of inhibiting the enzymatic activity by 50%, or alternatively the % inhibition at a concentration of 10 micromolar.
“U”-bottomed Falcon plates are prepared by placing 5 μl of solutions of the compounds according to the invention at concentrations of 10, 1, 0.1, 0.01 or 0.001 μM in various wells. The solutions of the compounds according to the invention at these various concentrations are prepared by diluting in a test buffer (50 mM Tris, pH 7.5, […], 2 mM DTT and 1 mM EGTA) a stock solution in DMSO at a concentration of 10 mM. Next, 5 μl of dephosphorylated casein are added to a final concentration of 0.2 μg/μl, 20 μl of CK1 epsilon are added to a final concentration of 3 ng/μl, and 20 μl of ATP-^33P are added to a final concentration of 0.02 μCi/μl mixed with cold ATP (10 μM final—approximately 2×10^6 CPM per well). The final total test volume per well is equal to 50 μl.
The “U”-bottomed Falcon® test plate mentioned above is vortexed, and then incubated at ambient temperature for 2 hours. After 2 hours, the reaction is stopped by adding an ice-cold solution of 65 μl of cold ATP (2 mM) prepared in test buffer. 100 μl of the reaction mixture are then transferred from the “U”-bottomed Falcon®plate into Millipore MAPH filter plates, preimpregnated with 25 μl of ice-cold 100% TCA. […]
The plates are left to dry overnight at ambient temperature. […] The radiation emitted by each well is then measured for 2 minutes in a Packard® Topcount NXT scintillation counter, in which the values of CPM/well are measured.
The % inhibition of the capacity of the enzyme to phosphorylate the substrate (casein) is determined for each concentration of compound tested. These inhibition data expressed as percentages are used to calculate the IC50 value for each compound compared with the controls.
The kinetic studies determined the KM value for ATP as being 21 μM in this test system.

T1 sequence (P48730 whole entry): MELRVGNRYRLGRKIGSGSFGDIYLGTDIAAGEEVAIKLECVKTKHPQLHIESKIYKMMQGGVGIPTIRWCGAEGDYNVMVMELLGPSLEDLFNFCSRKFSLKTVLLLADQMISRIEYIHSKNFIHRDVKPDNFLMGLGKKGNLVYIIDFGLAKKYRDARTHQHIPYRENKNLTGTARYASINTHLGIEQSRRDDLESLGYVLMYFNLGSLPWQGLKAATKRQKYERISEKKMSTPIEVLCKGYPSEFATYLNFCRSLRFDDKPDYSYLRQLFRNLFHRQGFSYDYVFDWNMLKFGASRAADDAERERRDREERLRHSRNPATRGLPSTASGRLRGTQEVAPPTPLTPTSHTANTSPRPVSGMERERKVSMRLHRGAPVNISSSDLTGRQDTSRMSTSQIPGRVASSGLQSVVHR
T2 sequence (P49674 whole entry): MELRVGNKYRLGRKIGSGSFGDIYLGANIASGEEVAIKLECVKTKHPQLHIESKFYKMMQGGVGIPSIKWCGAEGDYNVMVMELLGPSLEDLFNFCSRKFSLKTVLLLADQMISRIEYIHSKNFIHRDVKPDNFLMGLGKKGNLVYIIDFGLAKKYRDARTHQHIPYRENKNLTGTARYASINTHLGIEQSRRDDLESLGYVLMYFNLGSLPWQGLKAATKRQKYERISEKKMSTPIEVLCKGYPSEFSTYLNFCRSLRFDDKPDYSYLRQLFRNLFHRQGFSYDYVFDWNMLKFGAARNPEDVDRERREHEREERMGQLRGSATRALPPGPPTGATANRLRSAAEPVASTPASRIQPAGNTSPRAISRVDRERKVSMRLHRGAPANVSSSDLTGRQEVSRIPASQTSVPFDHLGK

Row | IC50 [1] [nM] | IC50 [2] [nM] | Compound
1 | 63 to 76 | 87 | Cc1ccc(-c2nc3ccc(N4CCNCC4)nn3c2-c2ccncc2)s1 [Compound 10, 2-(5-methylthien-2-yl)-6-(piperazin-1-yl)-3-(pyridin-4-yl)imidazo[1,2-b]pyridazine]
2 | 93 to 163 | 19 | OCCN1CCN(c2ccc3nc(-c4ccc(Cl)s4)c(-c4ccncc4)n3n2)CC1 [Compound 14, 2-{4-[2-(5-chlorothien-2-yl)-3-(pyridin-4-yl)imidazo[1,2-b]pyridazin-6-yl](piperazin-1-yl)}ethanol]

— patent US20130190314A1, “DERIVATIVES OF 6-CYCLOAMINO-2-THIENYL-3-(PYRIDIN-4-YL)IMIDAZO[1,2-b]-PYRIDAZINE AND 6-CYCLOAMINO-2-FURANYL-3-(PYRIDIN-4-YL)IMIDAZO[1,2-b]-PYRIDAZINE, PREPARATION AND THERAPEUTIC USE THEREOF” (priority 2008, published 2013)
